Patent publication US8735432B2, “N-(Heteroaryl)-1-heteroarylalky1-1H-indole-2-carboxamide derivatives, preparation and therapeutic use thereof” (Sanofi, priority 2005, dated 2014)

Experiments:
TRPV1 receptor = molecular target: T1, TRPV1 receptor (Rattus norvegicus, UniProt O35433); test: Inhibition of the current induced with capsaicin on rat DRGs (whole-cell patch-clamp); assay type: cell-based; settings: DRG neuron; compound at 3 nM; inhibition of control capsaicin response (300 nM); newborn rat DRG neurons; read-out: % inhibition as a DRG patch
T1 construct: The neurons of the DRG naturally express the TRPV1 receptor; endogenous in cells; host or cells: primary culture of newborn rat dorsal root ganglion neurons
Method: Test of Inhibition of the Current Induced with Capsaicin on Rat DRGs
Primary Culture of Rat Dorsal Root Ganglion (DRG) Cells:
The neurons of the DRG naturally express the TRPV1 receptor.
The primary cultures of newborn rat DRGs are prepared using 1-day-old rats. Briefly, after dissection, the ganglions are trypsinized and the cells dissociated by mechanical trituration. The cells are resuspended in an Eagle basal culture medium containing 10% fetal calf serum, 25 mM KCl, 2 mM glutamine, 100 μg/ml gentamicin and 50 ng/ml of NGF, and then deposited on glass slides coated with laminin (0.25×10^6 cells per slide), which are then placed in Corning 12-well dishes. The cells are incubated at 37° C. in a humidified atmosphere containing 5% CO2 and 95% air. […]
The measuring chambers (volume 800 μl) containing the cell preparation are placed on the platform of an inverted microscope (Olympus IMT2) equipped with Hoffman optics (Modulation Contrast, New York) and observed at a magnification of 400×. […] The overall currents (membrane potential set at −60 mV) are recorded with an Axopatch 1D amplifier (Axon Instruments, Foster City, Calif.), connected to a PC running the Pclamp8 software (Axon Instrument). The current plots are recorded on paper and simultaneously digitized (sampling frequency 15 to 25 Hz) and acquired on the hard drive of the PC. […]

TRPV1 receptors = molecular target: T2, TRPV1 receptors (Mus musculus, UniProt Q704Y3); test: Test of mouse corneal irritation (capsaicin ocular instillation); assay type: in vivo; settings: percentage of protection, pretreatment time t = 1 h, capsaicin 2 μl of 160 μM in the eye
T2 construct: from tissue; host or cells: living mouse, cornea (C fibres)
Method: Test of Mouse Corneal Irritation
The irritant nature of capsaicin is readily assessed on the cornea since this organ is one of the organs most densely innervated with C fibres. In this context, from preliminary experiments, the application of a very small amount of capsaicin (2 μl at a concentration of 160 μM) to the surface of the cornea of an animal leads to a certain number of stereotypic behavioral traits associated with irritation, which are easy to detect. Among these, the following are noted: blinking of the eye, rubbing of the instilled eye with the ipsilateral front paw, rubbing of the face with both front paws, scratching of the ipsilateral face with the hind paw. […] This aspect is moreover also normal. […]
In practice, the test product is administered orally and, with a delay (pretreatment time: t) that depends on the pharmacokinetic data, the animal receives an ocular instillation of 2 μl of a 160 μM capsaicin solution prepared as indicated above. During a 2-minute observation following the instillation, the number of times the instilled eye is rubbed with the ipsilateral front paw is recorded.
For a given animal, the percentage of protection is calculated as follows: P=100−((number of scratching actions observed/mean number of scratching actions for the group treated with the solvent)×100) […]

T2 sequence (Q704Y3 whole entry): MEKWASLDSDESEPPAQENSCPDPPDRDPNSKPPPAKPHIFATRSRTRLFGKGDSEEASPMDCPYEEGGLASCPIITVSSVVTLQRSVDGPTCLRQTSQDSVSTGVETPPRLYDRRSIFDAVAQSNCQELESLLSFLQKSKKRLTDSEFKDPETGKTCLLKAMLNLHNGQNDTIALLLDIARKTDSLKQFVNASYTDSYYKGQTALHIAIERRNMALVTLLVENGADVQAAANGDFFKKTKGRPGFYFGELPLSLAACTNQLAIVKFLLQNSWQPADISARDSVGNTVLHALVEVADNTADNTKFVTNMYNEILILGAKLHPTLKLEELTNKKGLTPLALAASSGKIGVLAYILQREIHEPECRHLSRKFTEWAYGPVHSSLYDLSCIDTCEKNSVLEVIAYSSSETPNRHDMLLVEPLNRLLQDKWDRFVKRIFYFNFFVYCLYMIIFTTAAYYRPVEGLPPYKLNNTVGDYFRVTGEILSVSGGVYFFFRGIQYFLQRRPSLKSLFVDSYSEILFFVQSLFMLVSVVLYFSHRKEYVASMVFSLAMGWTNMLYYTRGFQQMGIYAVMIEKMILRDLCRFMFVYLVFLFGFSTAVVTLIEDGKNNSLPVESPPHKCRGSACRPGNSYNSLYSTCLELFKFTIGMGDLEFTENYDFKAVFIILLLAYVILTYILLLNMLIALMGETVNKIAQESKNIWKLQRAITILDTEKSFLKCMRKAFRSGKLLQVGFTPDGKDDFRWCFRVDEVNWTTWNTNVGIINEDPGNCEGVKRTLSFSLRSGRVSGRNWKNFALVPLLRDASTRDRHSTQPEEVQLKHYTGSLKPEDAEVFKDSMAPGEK
T1 sequence (O35433 whole entry): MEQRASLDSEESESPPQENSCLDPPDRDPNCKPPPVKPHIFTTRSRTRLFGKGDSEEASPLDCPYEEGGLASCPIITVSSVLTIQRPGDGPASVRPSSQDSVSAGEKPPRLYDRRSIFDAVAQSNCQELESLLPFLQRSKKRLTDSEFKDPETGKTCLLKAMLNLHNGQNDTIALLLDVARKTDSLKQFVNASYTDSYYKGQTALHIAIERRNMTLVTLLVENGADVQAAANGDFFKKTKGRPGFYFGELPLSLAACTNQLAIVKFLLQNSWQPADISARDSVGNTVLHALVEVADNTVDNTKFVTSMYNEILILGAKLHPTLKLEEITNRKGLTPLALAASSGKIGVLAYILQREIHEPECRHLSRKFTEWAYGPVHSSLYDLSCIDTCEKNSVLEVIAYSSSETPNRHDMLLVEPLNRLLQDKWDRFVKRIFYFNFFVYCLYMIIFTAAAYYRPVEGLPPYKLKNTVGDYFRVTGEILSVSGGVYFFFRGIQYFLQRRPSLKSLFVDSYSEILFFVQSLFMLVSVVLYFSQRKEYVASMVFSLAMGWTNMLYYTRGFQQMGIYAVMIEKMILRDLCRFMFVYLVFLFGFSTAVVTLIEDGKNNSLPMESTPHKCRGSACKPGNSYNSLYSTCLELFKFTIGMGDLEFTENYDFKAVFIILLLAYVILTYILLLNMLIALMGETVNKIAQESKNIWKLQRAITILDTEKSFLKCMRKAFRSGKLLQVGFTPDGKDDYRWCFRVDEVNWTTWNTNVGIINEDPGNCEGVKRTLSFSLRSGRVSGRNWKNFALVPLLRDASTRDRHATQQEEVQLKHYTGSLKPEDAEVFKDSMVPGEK

SMILES	melting point [°C]	inhibition at 0.003 µM (TRPV1 receptor) [%]	% P - (t) at 1 mg/kg (po) (TRPV1 receptors)
Cc1ncc(Cn2c(C(=O)Nc3ccc4c(c3)nc(C)n4C)cc3cc(F)ccc32)nc1C	226 to 228	–	–
Cc1nc2cc(NC(=O)c3cc4cc(C(C)(C)C)ccc4n3Cc3ccncc3)ccc2n1C.Cl.Cl [Compound 6, N-(1,2-Dimethyl-1H-benzimidazol-5-yl)-5-t-butyl-1-[(pyrid-4-yl)methyl]-1H-indole-2-carboxamide hydrochloride (1:2)]	–	80	24% - (1 h)
Cc1cnc(Cn2c(C(=O)Nc3ccc4c(c3)nc(C)n4C)cc3cc(F)ccc32)c(C)n1	266 to 269	–	–
Cl.Cn1ccc2cc(NC(=O)c3cc4cc(F)ccc4n3Cc3ccncc3)ccc21 [Compound 3, N-(1-Methyl-1H-indol-5-yl)-5-fluoro-1-[(pyrid-4-yl)methyl]-1H-indole-2-carboxamide hydrochloride (1:1)]	–	–	44% - (1 h)
Cc1cnc(C)c(Cn2c(C(=O)Nc3ccc4c(c3)nc(C)n4C)cc3cc(F)ccc32)n1	269 to 275	–	–
